Laboratory results from patent publication EP0006752A1, “Compositions for the treatment of chronic trypanosomiasis infections” (Merck & Co., Inc., priority 1978, dated 1980).
“And” between values parts separate entries of the source, which are not always exact repeats. Identical values can stand only once.

What was measured:
T. brucei TREU 667/1 [1] = assay: Chronic (21 day old) T. brucei TREU 667/1 infection in mice, cure/relapse after i.p. treatment; assay type: in vivo, Trypanosoma brucei; conditions: for time after treatment until signs of relapse: some of the mice treated with the prophylactic drugs (pretreatment experiments of Table 3); for Number Cured Out of Total Treated: mice infected for 21 days
Source text: The mice used were adult CFLP females approximately 25-30 g. and maintained on standard laboratory diet throughout the experiments.
Two stabilates were used throughout the experiments, the main one was T. brucei TREU 667/1 originally obtained from Dr. A. R. Gray, Edinburgh, and the other T. brucei LUMP 1001 obtained from Professor W. H. R. Lumsden, London. These were cryogenically maintained as previously described in Jennings, Whitelaw & Urquhart, Parasitol. 75, 143-153 (1977).
Each mouse was inoculated intraperitoneally with 1 x 10^4 trypanosomes prepared from the stabilate in phosphate glucose saline pH 8.0. Chemotherapy commenced at various times post inoculation. Each mouse was weighed and the requisite dose of drug administered intraperitoneally in a volume of 0.1 ml./5g. body weight.
Compounds I, II and III were used in crystalline powder forms. These were first ground finely in an agate mortar and then suspended in physiological saline for intraperitoneal injection. A drop of detergent (Tween 80) was added to the suspensions to facilitate wetting. Care was taken during dispensing that the suspensions were properly dispersed, and because of some slight unavoidable settlement in the syringe, the mice were always injected at random and usually not more than 3 mice were injected from the one syringe full of drug suspension. As the regimen was usually 4 daily doses at the respective drug concentration, any errors were evenly distributed.
The other established drugs used were Berenil (diminazene aceturate, obtained from Fabwerke, Hoechst, Germany, 40 mg./kg. unless otherwise specified), Ethidium (homidium bromide 7.5 mg./kg.) and Prothidium (pyrithidium bromide 10 mg./kg. obtained from Boots Pure Drug Co., England) and Samorin (isometamidium 2 mg./kg. obtained from May & Baker Ltd.). […]
The mice were examined for parasites on the day treatment was initiated (usually day 3 or 21 of infection) by examination of a drop of tail blood under x40 objective (wet film technique). Subsequent to treatment they were examined every 2 days for 6 days and thereafter once per week until relapse occurred or until the experiment was terminated (in some instances 6-7 months).
The initial work with Berenil was carried out using the dose rate of 40 mg./kg. which was the dose of drug used in all the original work on chronic infections.
In addition, groups of mice were given Berenil and the Compound III simultaneously, or one injection of Berenil followed by one injection of Compound III in order to compress the treatment into the minimum number of injections.

T. brucei LUMP 1001 [2] = assay: Chronic (21 day old) T. brucei LUMP 1001 infection in mice, cure/relapse after i.p. treatment; assay type: in vivo, Trypanosoma brucei
Source text: The mice used were adult CFLP females approximately 25-30 g. and maintained on standard laboratory diet throughout the experiments. Two stabilates were used throughout the experiments, the main one was T. brucei TREU 667/1 originally obtained from Dr. A. R. Gray, Edinburgh, and the other T. brucei LUMP 1001 obtained from Professor […], London. These were cryogenically maintained as previously described in Jennings, […], Parasitol. 75, 143-153 (1977). Each mouse was inoculated intraperitoneally with 1 x 10^4 trypanosomes prepared from the stabilate in phosphate glucose saline pH 8.0. Chemotherapy commenced at various times post inoculation. Each mouse was weighed and the requisite dose of drug administered intraperitoneally in a volume of 0.1 ml./5g. body weight. Compounds I, II and III were used in crystalline powder forms. These were first ground finely in an agate mortar and then suspended in physiological saline for intraperitoneal injection. A drop of detergent (Tween 80) was added to the suspensions to facilitate wetting. Care was taken during dispensing that the suspensions were properly dispersed, and because of some slight unavoidable settlement in the syringe, the mice were always injected at random and usually not more than 3 mice were injected from the one syringe full of drug suspension. As the regimen was usually 4 daily doses at the respective drug concentration, any errors were evenly distributed. […] All were prepared according to the manufacturer's instructions and were injected intraperitoneally. The mice were examined for parasites on the day treatment was initiated (usually day 3 or 21 of infection) by examination of a drop of tail blood under x40 objective (wet film technique). […] It was known that T. brucei LUMP 1001 relapsed after treatment of a 21 day old infection Jennings, […], Parasitol. 75, 143-153 (1977), and indeed tended to relapse earlier after treatment with Berenil at 40 mg./kg. than any of the other stabilates tested (approximately 20 days). The original experiment using 40 mg./kg. Berenil as pre-treatment followed by Compound III was disappointing, as only 3 out of a total of 27 mice appeared to be cured by the various dose regimens. The experiment was therefore repeated increasing the pretreatment dose of Berenil to 60 mg./kg. and 80 mg./kg., the latter being given as two doses of 40 mg./kg. on consecutive days to avoid the possibility of deaths due to the toxicity of Berenil at that dose level in mice. This pretreatment was followed by administration of Compound III at 4 doses of 80 mg./kg. and in both instances where the increased Berenil dose level (60 mg./kg. and 80 mg./kg.) was used, satisfactory permanent cures were accomplished, whereas in the respective controls all of the mice relapsed.

T. brucei TREU 667/1 [3] = assay: Early (3 day old) T. brucei TREU 667/1 infection in mice, cure after i.p. treatment; assay type: in vivo, Trypanosoma brucei; conditions: for Number Cured Out of Total Treated: CFLP mice infected for 3 days
Source text: The mice used were adult CFLP females approximately 25-30 g. and maintained on standard laboratory diet throughout the experiments. Two stabilates were used throughout the experiments, the main one was T. brucei TREU 667/1 originally obtained from Dr. A. R. Gray, Edinburgh, and the other T. brucei LUMP 1001 obtained from Professor […], London. These were cryogenically maintained as previously described in Jennings, […], Parasitol. 75, 143-153 (1977). Each mouse was inoculated intraperitoneally with 1 x 10^4 trypanosomes prepared from the stabilate in phosphate glucose saline pH 8.0. Chemotherapy commenced at various times post inoculation. Each mouse was weighed and the requisite dose of drug administered intraperitoneally in a volume of 0.1 ml./5g. body weight. Compounds I, II and III were used in crystalline powder forms. These were first ground finely in an agate mortar and then suspended in physiological saline for intraperitoneal injection. A drop of detergent (Tween 80) was added to the suspensions to facilitate wetting. Care was taken during dispensing that the suspensions were properly dispersed, and because of some slight unavoidable settlement in the syringe, the mice were always injected at random and usually not more than 3 mice were injected from the one syringe full of drug suspension. As the regimen was usually 4 daily doses at the respective drug concentration, any errors were evenly distributed. […] All were prepared according to the manufacturer's instructions and were injected intraperitoneally. The mice were examined for parasites on the day treatment was initiated (usually day 3 or 21 of infection) by examination of a drop of tail blood under x40 objective (wet film technique). […] The three compounds, I, II and III were used at various dose levels against an early infection of T. brucei TREU 667/1 in CFLP. The dose regimen was initiated 3 days after infection and the intraperitoneal injections of drug suspension were given daily.

T. brucei LUMP 1001 [4] = conditions: 21 day old infection; Berenil at 40 mg./kg.; cited from earlier work
[5] = Berenil 40 mg./kg. day 21, no further treatment
[6] = 4 x 5 mg./kg. daily i.p., cure = no parasites in blood for at least 90 days
[7] = 4 x 20 mg./kg. daily i.p., cure = no parasites in blood for at least 90 days
[8] = single drug 4 x 20 mg./kg. daily i.p.

SMILES: CC[n+]1c(-c2ccccc2)c2cc(N)ccc2c2ccc(N)cc21 [Ethidium, homidium bromide]
- No. Cured Out of Total Treated (T. brucei TREU 667/1 [1]; Ethidium 7.5 mg./kg. day 21, no further treatment): 0/10

SMILES: CC[n+]1c(-c2ccccc2)c2cc(N/N=N/c3cccc(C(=N)N)c3)ccc2c2ccc(N)cc21 [Samorin, isometamidium]
- No. Cured Out of Total Treated (T. brucei TREU 667/1 [1]; Samorin 2.0 mg./kg. day 21, no further treatment): 0/10
- time after treatment until signs of relapse (T. brucei TREU 667/1 [1]): 6-7 months

SMILES: N=C(N)c1ccc(N=NNc2ccc(C(=N)N)cc2)cc1 [Berenil, diminazene aceturate]
- No. Cured Out of Total Treated (T. brucei LUMP 1001 [2]; [5]): 0/10 and 0/9
- No. Cured Out of Total Treated (T. brucei LUMP 1001 [2]; Berenil 60 mg./kg. day 21, no further treatment): 0/8
- No. Cured Out of Total Treated (T. brucei LUMP 1001 [2]; Berenil 80 mg./kg., given as 2 x 40 mg./kg. on day 21 and day 24, no further treatment): 0/8
- permanent cure of early infections (T. brucei TREU 667/1 [3]; early infection, Berenil 5 mg./kg.): can be permanently cured
- time for which all circulating trypanosomes are cleared from the bloodstream (T. brucei TREU 667/1 [1]; 5 mg./kg. Berenil): up to 20 days
- outcome after treatment (T. brucei TREU 667/1 [1]; 21 day old infection, 160 mg./kg. Berenil given subcutaneously): relapsed
- No. Cured Out of Total Treated (T. brucei TREU 667/1 [1]; Berenil 5 mg./kg. day 21, no further treatment): 0/10
- No. Cured Out of Total Treated (T. brucei TREU 667/1 [1]; Berenil 5 mg./kg. day 21, then Berenil 5 mg./kg. day 24): 0/10
- No. Cured Out of Total Treated (T. brucei TREU 667/1 [1]; Berenil 20 mg./kg. day 21, no further treatment): 0/10
- No. Cured Out of Total Treated (T. brucei TREU 667/1 [1]; [5]): 1/10 and 1/9
- cure rate (T. brucei TREU 667/1 [1]; Berenil (40 mg./kg.) given alone, in the particular experiment with the simultaneous group): 60%
- outcome after repeated treatment (T. brucei TREU 667/1 [1]; infected 21 days, Berenil alone 40 mg./kg., retreated every 30 days for a total of 5 months, a proportion of mice): eventually become parasitaemic again
- time to relapse after treatment (T. brucei LUMP 1001 [4]): approximately 20 days

SMILES: Cn1c([N+](=O)[O-])cnc1C1=NOC2CCCCCCC12 (stereo not drawn) [Compound III]
- No. Cured Out of Total Treated (T. brucei LUMP 1001 [2]; no pretreatment, III 4 x 80 mg./kg. commencing day 24): 0/10
- cure (T. brucei TREU 667/1 [3]; 3-day old infection, 4 doses at 20 mg./kg.): 100%
- Number Cured Out of Total Treated (T. brucei TREU 667/1 [3]; [6]): 2/8
- Number Cured Out of Total Treated (T. brucei TREU 667/1 [3]; [7]): 8/8
- period after treatment until the last of the mice relapsed (T. brucei TREU 667/1 [1]; established (21 day) infection, 4 doses at 80 mg./kg.): 42 days
- Number Cured Out of Total Treated (T. brucei TREU 667/1 [1]; [8]): 0/9 and 0/10 and 0/8
- Number Cured Out of Total Treated (T. brucei TREU 667/1 [1]; single drug 4 x 80 mg./kg. daily i.p.): 0/10
- No. Cured Out of Total Treated (T. brucei TREU 667/1 [1]; no pretreatment, III 4 x 20 mg./kg. commencing day 24): 0/8

SMILES: Cn1c([N+](=O)[O-])cnc1COC(N)=O [Compound I, 1-methyl-5-nitroimidazol-2-ylmethylcarbamate]
- Number Cured Out of Total Treated (T. brucei TREU 667/1 [3]; [6]): 0/8
- Number Cured Out of Total Treated (T. brucei TREU 667/1 [3]; [7]): 0/8

SMILES: Cc1cc(Nc2ccc3c(c2)c(-c2ccc(N)cc2)[n+](C)c2cc(N)ccc32)nc(N)[n+]1C.[Br-].[Br-] [Prothidium, pyrithidium bromide]
- No. Cured Out of Total Treated (T. brucei TREU 667/1 [1]; Prothidium 10.0 mg./kg. day 21, no further treatment): 0/8
- time after treatment until signs of relapse (T. brucei TREU 667/1 [1]): 6-7 months

SMILES: Cn1c([N+](=O)[O-])cnc1C1=NOC2CCCCC12 (stereo not drawn) [Compound II, 3'-(1-methyl-5-nitroimidazol-2-yl)-4'5'-tetramethylene-Δ^2-isoxazoline]
- cure rate (T. brucei TREU 667/1 [3]; 3-day old infection, 4 doses of 80 mg./kg.): 100%
- Number Cured Out of Total Treated (T. brucei TREU 667/1 [3]; [6]): 0/8
- Number Cured Out of Total Treated (T. brucei TREU 667/1 [3]; [7]): 2/8
- Number Cured Out of Total Treated (T. brucei TREU 667/1 [3]; 4 x 80 mg./kg. daily i.p., separate experiment): 10/10
- Number Cured Out of Total Treated (T. brucei TREU 667/1 [1]; [8]): 0/9
